Laboratory results as given in patent publication US20040018150A1, “Prodrugs of phosphonate nucleotide analogues and methods for selecting and making same” (priority 2003, published 2004).
Like-named read-outs stand apart in the source and are kept apart here.

Key:
[1] = Cytotoxicity in MT-2 cells; conditions: human
[2] = tested on: HIV-1; assay: microbe, parasite or virus in culture
[3] = Incubation of radiolabeled PMPA prodrugs or PMPA in human whole blood; metabolites in plasma, PBMCs and RBCs; assay type: in vitro ADME; conditions: human blood; for Total C-14 Recovered: 1 h incubation, 60 μg-eq; for Metabolites (% of Total Peak Area): GS 7340: 1 h
Protocol: After 1 hour, plasma, red blood cells (RBCs) and peripheral blood mononuclear cells (PBMCs) were isolated and analyzed by HPLC with radiometric detection.

[4] = Excretion and tissue distribution of radiolabelled prodrug in dogs; conditions: dogs; for % Dose / Conc.: oral 10 mg-eq. PMPA/kg
Protocol: Plasma and peripheral blood mononuclear cells (PBMCs) were obtained over the 24-hr period. Urine and feces were cage collected over 24 hr. At 24 h after the dose, the animals were sacrificed and tissues removed for analysis. Total radioactivity in tissues was determined by oxidation and liquid scintillation counting.

[5] = Stability / hydrolysis in MT-2 cell extract; assay type: in vitro ADME
Protocol: (§1) The in vitro metabolism and stability of separated diastereomers were determined in PLCE, MT-2 extract and human plasma. A biological sample listed below, 80 μL, was transferred into a screw-capped centrifuge tube and incubated at 37° C. for 5 min. A solution containing 0.2 mg/mL of the test compound in a suitable buffer, 20 μL, was added to the biological sample and mixed. The reaction mixture, 20 μL, was immediately sampled and mixed with 60 μL of methanol containing 0.015 mg/mL of 2-hydroxymethylnaphthalene as an internal standard for HPLC analysis. The sample was taken as the time-zero sample. Then, at specific time points, the reaction mixture, 20 μL, was sampled and mixed with 60 μL of methanol containing the internal standard. The mixture thus obtained was centrifuged at 15,000 G for 5 min and the supernatant was analyzed with HPLC under the conditions described below.
(2) MT-2 cell extract was prepared from MT-2 cells according to the published procedure [A. Pompon, I. Lefebvre, J.-L. Imbach, S. Kahn, and D. Farquhar, “Antiviral Chemistry & Chemotherapy”, 5:91-98 (1994)] except for using HEPES buffer described below as the medium.
In the study for MT-2 cell extracts, the test compound was dissolved in HEPES buffer. HEPES buffer contains 0.010 M HEPES, 0.05 M potassium chloride, 0.005 M magnesium chloride, and 0.005 M dl-dithiothreitol. pH 7.4 at 37° C.
(§2) The HPLC analysis was carried out under the following conditions.

[6] = Stability in human plasma; assay type: in vitro ADME
Protocol: as §1
(3) Human plasma (pooled normal human plasma from George King Biomedical Systems, Inc.)
In the study for human plasma, the test compound was dissolved in TBS. TBS (tris-buffered saline, Sigma) contains 0.05 M Tris, 0.0027 M potassium chloride, and 0.138 M sodium chloride. pH 7.5 at 37° C.
as §2

[7] = tested on: porcine liver carboxyesterase (PLCE); assay: in vitro; assay type: in vitro ADME; conditions: pig; 37° C., PBS pH 7.4; read-out: PLCE hydrolysis rate t1/2
Protocol: as §1
(§3) (1) PLCE (porcine liver carboxyesterase from Sigma, 160 u/mg protein, 21 mg protein/mL) diluted 20 fold with PBS (phosphated-buffered saline).
(§4) In the study for PLCE, the test compound was dissolved in PBS. PBS (phosphate-buffered saline, Sigma) contains 0.01 M phosphate, 0.0027 M potassium chloride, and 0.137 M sodium chloride. pH 7.4 at 37° C.
as §2

[8] = tested on: PLCE (porcine liver carboxyesterase); assay: in vitro; assay type: in vitro ADME; conditions: 37° C., PBS pH 7.4
Protocol: as §1, §3, §4, §2

CC(C)OC(=O)[C@H](C)N[P@](=O)(CO[C@H](C)Cn1cnc2c(N)ncnc21)Oc1ccccc1 (single isomer, unassigned) [GS-7340]
CC50 ([1]; CC50, cell culture): ≥ 40000 nM
CC50 ([1]; Cytotoxicity CC50, MT-2 cells): > 40000 nM
IC50 ([2]; Human immunodeficiency virus 1, MT2): 5 nM
IC50 ([2]; Human immunodeficiency virus 1, MT2, read-out: HIV IC50): 5 nM
IC50 ([2]; Human immunodeficiency virus 1, MT2, read-out: HIV-1 Activity IC50): 5 nM
Total C-14 Recovered ([3]; PBMC): 1.25 μg-eq
Metabolites (% of Total Peak Area): GS 7340 ([3]; Plasma/FP): 84%
Total C-14 Recovered ([3]; Plasma/FP): 43.0 μg-eq
Metabolites (% of Total Peak Area): GS 7340 ([3]; RBC/FP): 57%
Total C-14 Recovered ([3]; RBC/FP): 12.6 μg-eq
radioactivity in plasma due to intact GS-7340 ([3]; plasma after 1 hour): 84%
% Dose ([4]; Abdominal fat, 24 h): 0.00%
Conc. ([4]; Abdominal fat, 24 h): 0.90 ug-eq/g
% Dose ([4]; Adrenal Gland, 24 h): 0.00%
Conc. ([4]; Adrenal Gland, 24 h): 3.47 ug-eq/g
% Dose ([4]; Axillary Lymph Nodes, 24 h): 0.01%
Conc. ([4]; Axillary Lymph Nodes, 24 h): 5.54 ug-eq/g
% Dose ([4]; Bile, 24 h): 0.22%
Conc. ([4]; Bile, 24 h): 40.48 ug-eq/g
% Dose ([4]; Bone Marrow, 24 h): 0.00%
Conc. ([4]; Bone Marrow, 24 h): 2.05 ug-eq/g
% Dose ([4]; Brain, 24 h): 0.00%
Conc. ([4]; Brain, 24 h): <LOD
% Dose ([4]; Cerebrospinal Fluid, 24 h): 0.00%
Conc. ([4]; Cerebrospinal Fluid, 24 h): 0.00 ug-eq/g
% Dose ([4]; Duodenum, 24 h): 0.44%
Conc. ([4]; Duodenum, 24 h): 8.77 ug-eq/g
% Dose ([4]; Eye (L + R), 24 h): 0.00%
Conc. ([4]; Eye (L + R), 24 h): 0.23 ug-eq/g
% Dose ([4]; Feces, collected over 24 hr): 0.19%
% Dose ([4]; Femoral Bone, 24 h): 0.00%
Conc. ([4]; Femoral Bone, 24 h): 0.28 ug-eq/g
% Dose ([4]; Gall bladder, 24 h): 0.04%
Conc. ([4]; Gall bladder, 24 h): 25.02 ug-eq/g
% Dose ([4]; Heart, 24 h): 0.15%
Conc. ([4]; Heart, 24 h): 1.97 ug-eq/g
% Dose ([4]; Ileum, 24 h): 0.16%
Conc. ([4]; Ileum, 24 h): 4.61 ug-eq/g
% Dose ([4]; Iliac Lymph Nodes, 24 h): 0.01%
Conc. ([4]; Iliac Lymph Nodes, 24 h): 5.42 ug-eq/g
% Dose ([4]; Inguinal Lymph Nodes, 24 h): 0.00%
Conc. ([4]; Inguinal Lymph Nodes, 24 h): 4.12 ug-eq/g
% Dose ([4]; Jejunum, 24 h): 0.79%
Conc. ([4]; Jejunum, 24 h): 4.16 ug-eq/g
% Dose ([4]; Kidney, 24 h): 3.78%
Conc. ([4]; Kidney, 24 h): 80.21 ug-eq/g
% Dose ([4]; Large Intestine, 24 h): 2.65%
Conc. ([4]; Large Intestine, 24 h): 47.20 ug-eq/g
% Dose ([4]; Liver, 24 h): 16.45%
Conc. ([4]; Liver, 24 h): 52.94 ug-eq/g
% Dose ([4]; Lungs, 24 h): 0.34%
Conc. ([4]; Lungs, 24 h): 4.33 ug-eq/g
% Dose ([4]; Mesenteric Lymph Nodes, 24 h): 0.04%
Conc. ([4]; Mesenteric Lymph Nodes, 24 h): 6.88 ug-eq/g
% Dose ([4]; PBMC): 0.00%
Conc. ([4]; PBMC, calculated using typical recovery of 15 × 10^6 cells total, mean PBMC volume 0.2 picoliters/cell): 63.20 ug-eq/g
% Dose ([4]; Pancreas, 24 h): 0.01%
Conc. ([4]; Pancreas, 24 h): 3.51 ug-eq/g
% Dose ([4]; Pituitary Gland, 24 h): 0.00%
Conc. ([4]; Pituitary Gland, 24 h): 1.80 ug-eq/g
Conc. ([4]; Plasma at 0.25 h): 3.48 ug-eq/g
% Dose ([4]; Plasma at 24 h): 0.00%
Conc. ([4]; Plasma at 24 h): 0.20 ug-eq/g
% Dose ([4]; Prostate, 24 h): 0.00%
Conc. ([4]; Prostate, 24 h): 2.14 ug-eq/g
% Dose ([4]; Salivary Gland (L + R), 24 h): 0.03%
Conc. ([4]; Salivary Gland (L + R), 24 h): 5.54 ug-eq/g
% Dose ([4]; Skeletal Muscle, 24 h): 0.01%
Conc. ([4]; Skeletal Muscle, 24 h): 1.12 ug-eq/g
% Dose ([4]; Skin, 24 h): 0.00%
Conc. ([4]; Skin, 24 h): 0.95 ug-eq/g
% Dose ([4]; Spinal Cord, 24 h): 0.00%
Conc. ([4]; Spinal Cord, 24 h): 0.04 ug-eq/g
% Dose ([4]; Spleen, 24 h): 0.17%
Conc. ([4]; Spleen, 24 h): 8.13 ug-eq/g
% Dose ([4]; Stomach, 24 h): 0.26%
Conc. ([4]; Stomach, 24 h): 2.68 ug-eq/g
% Dose ([4]; Testes (L + R), 24 h): 0.02%
Conc. ([4]; Testes (L + R), 24 h): 2.01 ug-eq/g
% Dose ([4]; Thyroid Gland, 24 h): 0.00%
Conc. ([4]; Thyroid Gland, 24 h): 4.78 ug-eq/g
% Dose ([4]; Total GI Tract Contents, 24 h): 21.64%
% Dose ([4]; Total Recovery, 24 h): 68.96%
% Dose ([4]; Urine, collected over 24 hr): 14.73%
% Dose ([4]; Whole Blood, 24 h): 0.16%
Conc. ([4]; Whole Blood, 24 h): 0.20 ug-eq/g
increase of levels of PMPA in the lymphatic tissues, bone marrow, and skeletal muscle ([4]; 24 hours after single oral dose, versus TDF): 10 fold
MT-2 extract hydrolysis product ([5]; 37° C., HEPES buffer pH 7.4): Met. X & PMPA
half-life at 0.04 mg/mL ([5]; human, pH 7.4, MT-2 cell extract, read-out: Stability T 1/2 MT-2 Cell Extract): 28.3 min
Human Plasma Stability (HP) product ([6]; 37° C., TBS pH 7.5): Met. Y
half-life at 0.04 mg/mL ([6]; pH 7.5, human plasma, read-out: Stability T 1/2 Human Plasma): 90 min
half-life at 0.04 mg/mL [7]: 3.3 min
PLCE hydrolysis product [8]: Met. X & PMPA
